Source: PubChem BioAssay AID1159563 (GlaxoSmithKline (GSK), 2015)
Calls of active or inactive are those of the source. The rule behind the calls is not given here.

Each compound was assayed on HepG2 cytotoxicity (assay: human hepatoma cell viability loss – cytotoxicity control (AID 1159563)).
For Cc1cccc(N2CCCN(Cc3c[nH]c4ccccc34)CC2)n1, the IC50 was 13 µM. For COc1ccc(Oc2ccc(C(C)N(C)c3ncc4c(N)nc(N)nc4n3)cc2)cc1 (stereo unspecified), the IC50 was 40 µM. Cc1nn(-c2nc3ccccc3s2)c2c1C(c1ccc(OCC(N)=O)cc1)SCC(=O)N2 (stereo unspecified) was tested, and the IC50 was > 100 µM (inactive). O=C(Nc1nc(-c2ccc(F)cc2)cs1)c1ccc([N+](=O)[O-])s1 gave an IC50 of 13 µM. With CN(Cc1ccccc1)Cc1nnnn1C1CCN(Cc2ccc(-n3ccnc3)cc2)CC1 the IC50 was > 100 µM (inactive). For CN(C)CCN(C)Cc1ccc(Cl)cc1NS(=O)(=O)c1ccc(Cl)c(Cl)c1, the IC50 was 32 µM. CC(Cn1ccnc1)NC(=O)C1CC1c1cccc(Cl)c1Cl (stereo unspecified) was tested, and the IC50 was > 100 µM (inactive). Cc1ccccc1NS(=O)(=O)c1ccc2[nH]cc(C(=O)NC3CCCC3)c(=O)c2c1 showed an IC50 of 25 µM. In the case of c1ccc(CNc2cccc3ccncc23)cc1, the IC50 is reported as > 100 µM (inactive). Compound Cc1nc(N2CCC(C(=O)N3CCC(O)(c4cccnc4)CC3)CC2)nc2ccc(C(C)C)cc12 has an IC50 of 79 µM. For Cc1nn(-c2ccccc2)nc1CNC(=O)CN(Cc1ccccn1)Cc1ccccn1, the IC50 was > 130 µM (inactive). In the case of Cc1nc(N2CC(C)OC(C)C2)sc1C(=O)Nc1ccc2c(c1)OCO2 (stereo unspecified), the IC50 is reported as > 100 µM (inactive). With O=C(Nc1ccc(C(F)(F)F)cc1)Nc1cccc([N+](=O)[O-])c1 the IC50 was 10 µM. In the case of CNc1cc(C)nc(C2CN(C(=O)c3n[nH]c4ccccc34)CCO2)c1 (stereo unspecified), the IC50 is reported as > 100 µM (inactive). CCNc1cc(-c2ccccn2)nc(Nc2ccccc2)n1 gave an IC50 of 25 µM. In the case of COc1ccc(C(=O)[C@H]2C[C@@H]2CN(Cc2ccccn2)Cc2ccccn2)cc1, the IC50 is reported as > 100 µM (inactive). With Cc1cc(C)n(-c2nc(NC(C)(C)C)nc(N3CCOCC3)n2)n1 the IC50 was 100 µM. In the case of O=C(CN(Cc1ccccn1)Cc1ccccn1)NCc1ccc(-c2csnn2)cc1, the IC50 is reported as 25 µM. With CC(C)COC(=O)Nc1ccc(N2CCC(CNS(=O)(=O)c3ccccc3)CC2)c(F)c1 the IC50 was > 100 µM (inactive). In the case of Cc1ccc(NC(=O)c2ccc(Cl)c(NC(=O)c3ccc([N+](=O)[O-])cc3)c2)cc1, the IC50 is reported as > 100 µM (inactive). With O=S(=O)(c1ccccc1C(F)(F)F)N1CCN(Cc2ccc(-n3ccnc3)cc2)CC1 the IC50 was > 100 µM (inactive). With O=c1cc(NCCCNCc2cc(C(F)(F)F)cs2)[nH]c2ccccc12 the IC50 was 63 µM. With CC(Cn1ccnc1)NC(=O)C=Cc1ccc(Cl)cc1 (stereo unspecified) the IC50 was > 100 µM (inactive). O=C(Nc1cccc(Cl)c1)Nc1ccc([N+](=O)[O-])cc1Cl showed an IC50 of 32 µM. For COc1ccnc2[nH]cc(-c3cc(C(=O)N[C@H](CO)c4ccccc4)co3)c12, the IC50 was 16 µM. For N#Cc1cc([N+](=O)[O-])ccc1NC1CCCCCC1, the IC50 was > 100 µM (inactive). In the case of O=C(NCc1ccc(-n2cccc2)cc1)c1nc(Cn2ccc([N+](=O)[O-])n2)no1, the IC50 is reported as > 100 µM (inactive). O=C(CN1CCN(S(=O)(=O)c2cccc([N+](=O)[O-])c2)CC1)Nc1ccc(Oc2ccccc2)cc1 was tested, and the IC50 was > 100 µM (inactive). With CCc1cccc(-n2nc(OCC(=O)NC3CCCC3)c3cccnc32)c1 the IC50 was > 100 µM (inactive). For COc1cccc(CCNC(=O)C(c2cn[nH]c2)N2CCN(c3ccc(Cl)cc3)CC2)c1 (stereo unspecified), the IC50 was 50 µM. O=C(NCCc1cccnc1)c1csc(-c2ccccc2)n1 was tested, and the IC50 was > 100 µM (inactive). Compound Cn1nccc1-c1cc(OC(CN)c2ccccc2)cnc1-c1ccco1 (stereo unspecified) has an IC50 of 50 µM. For Cc1ccc2ccc(C(Nc3ccccn3)c3cccnc3)c(O)c2n1 (stereo unspecified), the IC50 was 20 µM. Work on OC1CCC(Nc2nccc(-c3sc(C4CCOCC4)nc3-c3ccc(F)c(F)c3)n2)CC1 (stereo unspecified) yielded an IC50 of 25 µM. Clc1ccc(Sc2cnccc2N2CCOCC2)cc1 was tested, and the IC50 was > 100 µM (inactive). For Cc1nc2c(-c3ncn[nH]3)cc(NC(=O)Cc3ccccc3)cn2c1C, the IC50 was 16 µM. O=C(Nc1cccc(Cl)c1)N1CCCCC1c1cccnc1 (stereo unspecified) was tested, and the IC50 was > 100 µM (inactive). COc1ccc(C2CC(c3ccccc3Cl)=NN2C(=O)CNC(=O)C2CCC2)cc1 (stereo unspecified) was tested, and the IC50 was > 100 µM (inactive). Compound COc1ccc(S(=O)(=O)NCc2ccc(-c3ccc(CN(C)CCO)cc3)cc2)cc1 has an IC50 of 50 µM. In the case of CN(C)S(=O)(=O)c1cccc(C(=O)Nc2nc(-c3ccccn3)cs2)c1, the IC50 is reported as > 100 µM (inactive). Compound Cc1ccc2c(c1)-c1onc(C(=O)N3CCCCC3c3cccnc3)c1CO2 (stereo unspecified) has an IC50 of 50 µM. With O=C(NCCc1csc(-c2cccc(F)c2)n1)c1ccco1 the IC50 was > 100 µM (inactive). Cc1[nH]nc(-c2nc3ccccc3[nH]2)c1C(=O)NC1CCCNC1 (stereo unspecified) was tested, and the IC50 was > 100 µM (inactive). In the case of CCc1cccc(CC)c1-n1c(SCC(=O)N2CC(=O)Nc3ccccc32)nnc1-c1cccnc1, the IC50 is reported as > 100 µM (inactive). With Cc1nc2c(-c3nc(-c4ccc(N)cc4)n[nH]3)cccn2c1C the IC50 was 16 µM. For CCN(CC)c1ncc(C(=O)c2ccc([N+](=O)[O-])o2)s1, the IC50 was 16 µM. COc1ccc(-c2csc(NC(=O)c3ccc([N+](=O)[O-])s3)n2)cc1OC gave an IC50 of 10 µM. Oc1cccnc1-c1n[nH]c(Cc2ccccc2)n1 showed an IC50 of 79 µM. COCc1cc(Nc2ccc(Cl)cc2)nc(-c2ccccn2)n1 showed an IC50 of 13 µM. For O=C1CN(Cc2ccco2)C2CS(=O)(=O)CC2N1c1ccc(Cl)cc1 (stereo unspecified), the IC50 was > 100 µM (inactive). With Cc1[nH]c2ccccc2c(=O)c1Cc1c(C)[nH]c2ccccc2c1=O the IC50 was > 100 µM (inactive). Cc1sc(C)c(C(F)(F)F)c1CNCCCNc1cc(=O)c2ccccc2[nH]1 was tested, and the IC50 was 50 µM. COc1ccc(C2=NCC(CSc3nnc(-c4ccc5c(c4)OCO5)o3)S2)cc1 (stereo unspecified) was tested, and the IC50 was > 100 µM (inactive). In the case of Cc1cc2nc(N3CC[C@H]3C(N)=O)nc(Nc3cc(C4CC4)[nH]n3)c2s1, the IC50 is reported as > 100 µM (inactive). With Nc1nc(-c2ccccn2)nc(-n2nc(-c3ccccc3)cc2N)n1 the IC50 was 10 µM. O=C(Nc1nc(-c2ccccn2)cs1)c1ccc(S(=O)(=O)N2CCCCC2)cc1 gave an IC50 of 63 µM. For CC(C)(C)C(=O)NCCc1csc(-c2ccc(F)cc2)n1, the IC50 was > 100 µM (inactive). Fc1ccc(Nc2nc(-c3ccccn3)cs2)cc1 was tested, and the IC50 was > 100 µM (inactive). For Cc1cccnc1CN1CCN(CCCOc2ccc(-c3ccc(C(N)=O)cc3)cc2)CC1, the IC50 was > 100 µM (inactive). CC(C)Nc1nccc(-c2c(-c3ccc(F)cc3)ncn2C2CCOCC2)n1 was tested, and the IC50 was > 100 µM (inactive). Work on COc1cnc2ccc(=O)n(CCN3CCC(NC/C=C/c4cc(F)ccc4F)CC3)c2c1 yielded an IC50 of 63 µM. O=C(Nc1ccccc1C(=O)Nc1ccccn1)c1ccco1 was tested, and the IC50 was > 100 µM (inactive). In the case of CC(C)(C)CC(=O)NCc1noc(COc2ccccc2)n1, the IC50 is reported as > 100 µM (inactive). With CC(=O)NCCNc1cc(-c2ccnc(Nc3cccc(Cl)c3)n2)ccn1 the IC50 was 25 µM. For CCS(=O)(=O)Nc1ccc(C2=NN(C(=O)c3cccs3)C(c3ccccc3OC)C2)cc1 (stereo unspecified), the IC50 was > 100 µM (inactive). C[C@@H](Oc1cc(-n2cnc3ccc(CC(O)CO)cc32)sc1C(N)=O)c1ccccc1Cl (stereo partly specified) was tested, and the IC50 was > 100 µM (inactive). In the case of COc1ccc2nc(N(Cc3cccnc3)C(=O)C3CCC3)sc2c1, the IC50 is reported as > 100 µM (inactive). With COc1ccccc1C=CCN1C[C@H]2CCC[C@@H](C1)C2(O)c1cccnc1 (stereo partly specified) the IC50 was > 100 µM (inactive). In the case of COc1ccc(C2CC(c3ccc(NS(C)(=O)=O)cc3)=NN2C(=O)c2cccs2)cc1OC (stereo unspecified), the IC50 is reported as > 100 µM (inactive). In the case of CC(=O)Nc1ccc(-c2ccnc(Nc3cccc(C#N)c3)n2)cc1, the IC50 is reported as > 100 µM (inactive). With Cc1cccc(NS(=O)(=O)c2cnc3sc(C)cn3c2=O)c1 the IC50 was > 100 µM (inactive). Work on Cn1cc(CN2CCN(c3ccc4c(c3)CCN(C(=O)[C@H]3C[C@@H]3c3ccccc3)CC4)CC2)cn1 yielded an IC50 of 50 µM. CC(C)Oc1ccc(C(=O)Nc2ccc(N3CCOCC3)c(Cl)c2)cc1 gave an IC50 of 32 µM. Compound CCOc1ccc(N(C)S(=O)(=O)c2ccc3[nH]cc(C(=O)NC4CCCC4)c(=O)c3c2)cc1 has an IC50 of 50 µM. O=C(Cc1ccc2c(c1)CCC2)Nc1n[nH]c(-c2ccccn2)n1 was tested, and the IC50 was 50 µM. For N#Cc1ccc(S(=O)(=O)N2CCN(Cc3cccc(-c4ccncc4)c3)CC2)cc1, the IC50 was > 100 µM (inactive). With O=C(NCC1CCCCC1)c1cnns1 the IC50 was 40 µM. Compound COc1ccc2nccc(NC(=O)C3(OC)CCN(CC(O)c4ccc5c(c4)OCCO5)CC3)c2n1 (stereo unspecified) has an IC50 of 40 µM. N#Cc1cnc(Nc2cccc(CCN3CCOCC3)c2)nc1Nc1ccccc1C(N)=O was tested, and the IC50 was 25 µM. In the case of CCC(CC)C(=O)Nc1ccc(-c2nnc(-c3ccc(OC)cc3)o2)cc1, the IC50 is reported as > 100 µM (inactive). O=C(CN(c1cccc(C(F)(F)F)c1)S(=O)(=O)c1ccc(Cl)cc1)NCc1ccc(F)c(F)c1 was tested, and the IC50 was > 100 µM (inactive). Cc1cc(C#N)c([N+](=O)[O-])cc1Br was tested, and the IC50 was 32 µM. COc1cccc(Nc2cc(C)nc(-c3ccccn3)n2)c1 was tested, and the IC50 was 50 µM. CC1=C(C(=O)Nc2ccc(Cl)cc2)C(c2ccncc2)n2ncc(C(=O)Nc3ccccc3)c2N1 (stereo unspecified) showed an IC50 of 79 µM. NCC(Cc1ccccc1)NC(=O)c1cnc(-c2c[nH]c3ncccc23)s1 (stereo unspecified) showed an IC50 of 79 µM. Work on O=C(NCC(c1cccs1)N1CCOCC1)c1ccc([N+](=O)[O-])o1 (stereo unspecified) yielded an IC50 of 20 µM. Compound CCN(CC)c1nc(Nc2ccncc2)nc2ccccc12 has an IC50 of 50 µM. Clc1cc(Br)ccc1OCCCCn1ccnc1 gave an IC50 of 50 µM. For CCOC(=O)c1cn[nH]c1S(=O)(=O)N1CCC1c1ccccc1 (stereo unspecified), the IC50 was > 100 µM (inactive). In the case of CC(C)(C)c1csc(NC(=O)c2ccc([N+](=O)[O-])s2)n1, the IC50 is reported as 50 µM. In the case of CS(=O)(=O)c1cccc(CNC(=O)c2cncc(N3CCN(c4ccc(F)cc4)CC3)c2)c1, the IC50 is reported as > 100 µM (inactive). With NC(=O)c1cc(F)ccc1Nc1nc(NC2CCC(O)CC2)ncc1Br (stereo unspecified) the IC50 was 50 µM. With COc1cccc(-c2c(C)nn(-c3nc(N)nc(-c4ccccn4)n3)c2N)c1 the IC50 was > 100 µM (inactive). With Cc1cc(Nc2cc(C3CC3)[nH]n2)nc(N2CCCC2)n1 the IC50 was 32 µM. With COc1cc(C2SCC(=O)Nc3c2c(C)nn3-c2nc3ccccc3s2)cc(OC)c1O (stereo unspecified) the IC50 was > 100 µM (inactive). COc1ccc(S(=O)(=O)Nc2ccccc2OC)cc1NC(=O)CCCc1c[nH]c2ccccc12 was tested, and the IC50 was > 100 µM (inactive). In the case of O=C(NCCc1ccccc1Cl)c1cccn1-c1cccnc1, the IC50 is reported as > 100 µM (inactive). COc1ccc(S(=O)(=O)Nc2ccc(C(=O)Nc3nc(-c4ccccn4)cs3)cc2)cc1 was tested, and the IC50 was 63 µM. COc1ccccc1C1CC(c2ccc(NS(C)(=O)=O)cc2)=NN1C(=O)c1cccs1 (stereo unspecified) was tested, and the IC50 was > 100 µM (inactive). For O=C(NCCc1cccnc1)c1ccc(-c2ccccc2F)o1, the IC50 was > 100 µM (inactive). Work on Cc1cccc(Nc2nc(-c3ccccn3)cs2)n1 yielded an IC50 of 40 µM.
